{
  "source": "patent US20230312562A1",
  "about": "“TETRAHYDRO-3H-PYRAZOLO QUINOLONE AND TETRAHYDRO-3H-PYRROLO[3,2-F]QUINOLINE -CONTAINING COMPOUNDS AND USES THEREOF” (Purdue Research Foundation, priority 2020, published 2023)",
  "key": {"SF-295": {"tested_on": "SF-295", "assay": "NCI-60 sulforhodamine B assay, SF-295", "format": "cell-based", "conditions": "Homo sapiens; SF-295, CNS, 48 h", "method": "(§1) Compounds HSD1787, 22, 23 and 27 were sent to the National Cancer Institute (NCI), Bethesda, Maryland (Drug Evaluation Branch), to evaluate the effects of compounds on the NCI-60 cell panel. According to the NCI protocol, the compounds were evaluated at five concentrations (10-fold dilutions) with the highest concentration being 100 μM and the incubation period was 48 h. A sulforhodamine B assay was used to assay the effects of the compounds on the cancer cells. […] The most sensitive cell lines (total growth inhibition, TGI, could be achieved with concentrations less than 1 μM of some of the compounds) were MDA-MB-435 (melanoma), SF-539 (glioma), A498 (renal), MDA-MB-468 (breast), OVCAR-3 (ovarian), NCI-H522 (non-small cell lung cancer). On the other hand, UACC-257 and SK-MEL-28 (both melanoma), TK-10 (renal), OVCAR-4 (ovarian) and T-47D (breast) were resistant to the compounds as 10 μM could not cause total growth inhibition (Table 2). […] This is in line with current appreciation that tumor mutational burden and not necessarily the anatomical origin of the tumor determines treatment strategies or outcomes.\n(§2) According to the National Cancer Institute, Bethesda, Maryland (the protocol of the Drug Evaluation Branch), the effects of compounds are measured as follows: Cell suspensions are diluted to a target cell density of 5000-40,000 cells per well (based on cell growth characteristics) in a 96-well microtiter plates. The test compounds were evaluated at five concentrations (10-fold dilutions) with the highest concentration being 100 μM. The incubation period was 48 h under 5% carbon dioxide atmosphere and 100% humidity. A sulforhodamine B assay was used to assay the cells. Optical densities of the wells were read by a plate reader the optical densities were processed into GI50 (the concentration that causes 50% growth inhibition).\n(§3) The NCI renamed the IC50 value, the concentration of compound that causes 50% growth inhibition, as follows:\n(§4) The control is the well not treated with test agent (https://dtp.cancer.gov/databases_tools/docs/compare/compare_methodology.htm)."}, "K-562": {"tested_on": "K-562", "assay": "NCI-60 sulforhodamine B assay, K-562", "format": "cell-based", "conditions": "Homo sapiens, K562; K-562, leukemia, 48 h", "method": "as §1, §2, §3, §4"}, "MCF7": {"tested_on": "MCF7", "assay": "NCI-60 sulforhodamine B assay, MCF7", "format": "cell-based", "conditions": "Homo sapiens; MCF7, breast, 48 h", "method": "as §1, §2, §3, §4"}, "A498": {"tested_on": "A498", "assay": "NCI-60 sulforhodamine B assay, A498", "format": "cell-based", "conditions": "A498, renal, 48 h; for GI50: Homo sapiens", "method": "as §1, §2, §3, §4"}, "SF-539": {"tested_on": "SF-539", "assay": "NCI-60 sulforhodamine B assay, SF-539", "format": "cell-based", "conditions": "SF-539, CNS, 48 h; for GI50: Homo sapiens", "method": "as §1, §2, §3, §4"}, "Ovcar-4": {"tested_on": "Ovcar-4", "assay": "NCI-60 sulforhodamine B assay, Ovcar-4", "format": "cell-based", "conditions": "Homo sapiens; Ovcar-4, ovarian, 48 h", "method": "as §1, §2, §3, §4"}, "TK-10": {"tested_on": "TK-10", "assay": "NCI-60 sulforhodamine B assay, TK-10", "format": "cell-based", "conditions": "Homo sapiens; TK-10, renal, 48 h", "method": "as §1, §2, §3, §4"}, "Ovcar-3": {"tested_on": "Ovcar-3", "assay": "NCI-60 sulforhodamine B assay, Ovcar-3", "format": "cell-based", "conditions": "Ovcar-3, ovarian, 48 h; for GI50: Homo sapiens", "method": "as §1, §2, §3, §4"}, "SK-MEL-28": {"tested_on": "SK-MEL-28", "assay": "NCI-60 sulforhodamine B assay, SK-MEL-28", "format": "cell-based", "conditions": "Homo sapiens; SK-MEL-28, melanoma, 48 h", "method": "as §1, §2, §3, §4"}, "NCI60 cell lines": {"tested_on": "NCI60 cell lines", "assay": "NCI-60 cell panel, summary statements", "format": "cell-based", "conditions": "melanoma, renal, breast, ovarian and leukemia cancer cell lines; read-out: GI50 values as low as", "method": "as §1, §2, §3, §4"}, "NCI-H522": {"tested_on": "NCI-H522", "assay": "NCI-60 sulforhodamine B assay, NCI-H522", "format": "cell-based", "conditions": "NCI-H522, non-small cell lung, 48 h; for GI50: Homo sapiens", "method": "as §1, §2, §3, §4"}, "Ovcar-8": {"tested_on": "Ovcar-8", "assay": "NCI-60 sulforhodamine B assay, Ovcar-8", "format": "cell-based", "conditions": "Homo sapiens; Ovcar-8, ovarian, 48 h", "method": "as §1, §2, §3, §4"}, "MDA-MB-468": {"tested_on": "MDA-MB-468", "assay": "NCI-60 sulforhodamine B assay, MDA-MB-468", "format": "cell-based", "conditions": "MDA-MB-468, breast, 48 h; for GI50: Homo sapiens", "method": "as §1, §2, §3, §4"}, "MDA-MB-231": {"tested_on": "MDA-MB-231", "assay": "Inhibition of MDA-MB-231 viability/growth at 1 μM, 72 h", "format": "cell-based", "conditions": "Homo sapiens, MDA-MB-231; 1 μM compound, 72 h incubation"}, "UACC-257": {"tested_on": "UACC-257", "assay": "NCI-60 sulforhodamine B assay, UACC-257", "format": "cell-based", "conditions": "Homo sapiens; UACC-257, melanoma, 48 h", "method": "as §1, §2, §3, §4"}, "MDA-MB-435": {"tested_on": "MDA-MB-435", "assay": "NCI-60 sulforhodamine B assay, MDA-MB-435", "format": "cell-based", "conditions": "MDA-MB-435, melanoma, 48 h; for GI50: Homo sapiens", "method": "as §1, §2, §3, §4"}, "SR": {"tested_on": "SR", "assay": "NCI-60 sulforhodamine B assay, SR", "format": "cell-based", "conditions": "Homo sapiens, lymphoma, 48 h", "method": "as §1, §2, §3, §4"}, "T-47D": {"tested_on": "T-47D", "assay": "NCI-60 sulforhodamine B assay, T-47D", "format": "cell-based", "conditions": "Homo sapiens, T47D, breast, 48 h", "method": "as §1, §2, §3, §4"}, "NCI/ADR-RES": {"tested_on": "NCI/ADR-RES", "assay": "NCI-60 sulforhodamine B assay, NCI/ADR-RES", "format": "cell-based", "conditions": "ovarian, 48 h; for GI50: Homo sapiens", "method": "as §1, §2, §3, §4"}, "tubulin": {"tested_on": "tubulin", "assay": "Inhibition of tubulin polymerization", "format": "biochemical", "conditions": "at 10 μM; similar to inhibition by colchicine"}},
  "data": [
    {"smiles": "Nc1n[nH]c2ccc([C@@H]3Nc4c(F)cc5[nH]ncc5c4[C@H]4[C@@H]5CC[C@@H](C5)[C@H]43)cc12", "note": "(stereo in doubt) [Compound 22, 5-(5-fluoro-6,7,7a,8,9,10,11,11a-octahydro-3H-8,11-methanopyrazolo[4,3-a]phenanthridin-7-yl)-1H-indazol-3-amine]", "values": [
      {"measurement": "GI50", "setting": "SF-295", "value": 50, "unit": "nM"},
      {"measurement": "GI50", "setting": "K-562", "value": 47.7, "unit": "nM"},
      {"measurement": "GI50", "setting": "MCF7", "value": 61.6, "unit": "nM"},
      {"measurement": "TGI (total growth inhibition)", "setting": "A498", "value": 636, "unit": "nM"},
      {"measurement": "GI50", "setting": "A498", "value": 72.2, "unit": "nM"},
      {"measurement": "GI50", "setting": "SF-539", "value": 167, "unit": "nM"},
      {"measurement": "TGI (total growth inhibition)", "setting": "SF-539", "value": 590, "unit": "nM"},
      {"measurement": "GI50", "setting": "Ovcar-4", "value": 3340, "unit": "nM"},
      {"measurement": "GI50", "setting": "TK-10", "value": 10700, "unit": "nM"},
      {"measurement": "GI50", "setting": "Ovcar-3", "value": 220, "unit": "nM"},
      {"measurement": "TGI (total growth inhibition)", "setting": "Ovcar-3", "value": 806, "unit": "nM"},
      {"measurement": "GI50", "setting": "SK-MEL-28", "value": 1400, "unit": "nM"},
      {"measurement": "GI50", "setting": "NCI60 cell lines", "value": "≥ 30", "unit": "nM"},
      {"measurement": "GI50", "setting": "NCI-H522", "value": 115, "unit": "nM"},
      {"measurement": "TGI (total growth inhibition)", "setting": "NCI-H522", "value": 1920, "unit": "nM"},
      {"measurement": "GI50", "setting": "Ovcar-8", "value": 448, "unit": "nM"},
      {"measurement": "GI50", "setting": "MDA-MB-468", "value": 78.8, "unit": "nM"},
      {"measurement": "TGI (total growth inhibition)", "setting": "MDA-MB-468", "value": 468, "unit": "nM"},
      {"measurement": "inhibition at 1 µM", "setting": "MDA-MB-231", "value": 79, "unit": "%"},
      {"measurement": "GI50", "setting": "UACC-257", "value": 5010, "unit": "nM"},
      {"measurement": "GI50", "setting": "MDA-MB-435", "value": 34.8, "unit": "nM"},
      {"measurement": "GI50", "setting": "SR", "value": 87.7, "unit": "nM"},
      {"measurement": "GI50", "setting": "T-47D", "value": "> 10000", "unit": "nM"},
      {"measurement": "GI50", "setting": "NCI/ADR-RES", "value": 198, "unit": "nM"},
      {"measurement": "TGI (total growth inhibition)", "setting": "NCI/ADR-RES", "value": 921, "unit": "nM"}
    ]},
    {"smiles": "Nc1n[nH]c2ccc([C@@H]3Nc4ccc5[nH]ncc5c4[C@H]4C5CC[C@@H](C5)[C@@H]34)cc12", "note": "(stereo in doubt) [HSD1787, 5-(6,7,7a,8,9,10,11,11a-Octahydro-3H-8,11-methanopyrazolo[4,3-a]phenanthridin-7-yl)-1H-indazol-3-amine]", "values": [
      {"measurement": "GI50", "setting": "SF-295", "value": 340, "unit": "nM"},
      {"measurement": "GI50", "setting": "K-562", "value": 264, "unit": "nM"},
      {"measurement": "GI50", "setting": "MCF7", "value": 375, "unit": "nM"},
      {"measurement": "TGI (total growth inhibition)", "setting": "A498", "value": 646, "unit": "nM"},
      {"measurement": "GI50", "setting": "A498", "value": 179, "unit": "nM"},
      {"measurement": "GI50", "setting": "SF-539", "value": 232, "unit": "nM"},
      {"measurement": "TGI (total growth inhibition)", "setting": "SF-539", "value": 654, "unit": "nM"},
      {"measurement": "GI50", "setting": "Ovcar-4", "value": 2140, "unit": "nM"},
      {"measurement": "GI50", "setting": "TK-10", "value": 3860, "unit": "nM"},
      {"measurement": "GI50", "setting": "Ovcar-3", "value": 243, "unit": "nM"},
      {"measurement": "TGI (total growth inhibition)", "setting": "Ovcar-3", "value": 634, "unit": "nM"},
      {"measurement": "GI50", "setting": "SK-MEL-28", "value": 934, "unit": "nM"},
      {"measurement": "GI50", "setting": "NCI-H522", "value": 210, "unit": "nM"},
      {"measurement": "TGI (total growth inhibition)", "setting": "NCI-H522", "value": 868, "unit": "nM"},
      {"measurement": "GI50", "setting": "Ovcar-8", "value": 479, "unit": "nM"},
      {"measurement": "GI50", "setting": "MDA-MB-468", "value": 269, "unit": "nM"},
      {"measurement": "TGI (total growth inhibition)", "setting": "MDA-MB-468", "value": 2730, "unit": "nM"},
      {"measurement": "inhibition at 1 µM", "setting": "MDA-MB-231", "value": 95, "unit": "%"},
      {"measurement": "Inhibition of the polymerization of tubulin", "setting": "tubulin", "value": "inhibited the polymerization of tubulin"},
      {"measurement": "GI50", "setting": "UACC-257", "value": "> 10000", "unit": "nM"},
      {"measurement": "GI50", "setting": "MDA-MB-435", "value": 124, "unit": "nM"},
      {"measurement": "TGI (total growth inhibition)", "setting": "MDA-MB-435", "value": 329, "unit": "nM"},
      {"measurement": "GI50", "setting": "SR", "value": 233, "unit": "nM"},
      {"measurement": "GI50", "setting": "T-47D", "value": "> 10000", "unit": "nM"},
      {"measurement": "GI50", "setting": "NCI/ADR-RES", "value": 480, "unit": "nM"},
      {"measurement": "TGI (total growth inhibition)", "setting": "NCI/ADR-RES", "value": "> 10000", "unit": "nM"}
    ]}
  ]
}
